Our source for the IC50 values is US8575127B2, “Antithrombotic diadenosine tetraphosphates and related analogs” (GLSynthesis Inc., priority 2008, dated 2013).

For this test, the system named is ADP-induced human platelet aggregation. In words: ADP-induced platelet aggregation in platelet-rich human plasma (optical aggregometry). The test is classed as cell-based. Particulars: inhibition of 3 μM ADP-induced human platelet aggregation, average of 2 experiments. The protocol:
Platelet aggregation was initiated by adding ADP (3 μM) in the presence or absence of various concentrations of test compound to platelet-rich human plasma, and the aggregation response was recorded for six minutes in a Chrono-log® aggregometer running the Aggro/Link software (Chrono-log®, Havertown, Pa.).
`CSc1nc(N)c2ncn(C3OC(COP(=O)(O)OP(=O)(O)OP(=O)(O)OP(=O)(O)OCC4OC(n5cnc6c(N)nc(SC)nc65)C(O)C4O)C(O)C3O)c2n1` (stereo not shown) [Compound 2, tetrasodium P^1,P^4-bis-(2-methylthio-5′-adenosine)tetraphosphate]: the half-inhibitory concentration (IC50) stood at 89 ± 38 nM. For `CSc1nc(N)c2ncn(C3OC(COP(O)(=S)OP(=O)(O)OP(=O)(O)OP(O)(=S)OCC4OC(n5cnc6c(N)nc(SC)nc65)C(O)C4O)C(O)C3O)c2n1` (stereo not shown) [Compound 10, P^1,P^4-bis-(2-methylthio-5′-adenosine)-P^1,P^4-dithiotetraphosphate] the value was 50 ± 37 nM; for “Bis-adenosine tetraphosphate [Ap4A, reference compound]”, 9800 ± 2800 nM; for `CNc1nc(SC)nc2c1ncn2C1OC(COP(O)(=S)OP(=O)(O)C(Cl)P(=O)(O)OP(O)(=S)OCC2OC(n3cnc4c(NC)nc(SC)nc43)C(O)C2O)C(O)C1O` (stereo not shown) [Compound 22, P^1,P^4-bis(N^6-methyl-2-methylthio-5′-adenosine)-P^1,P^4-dithio-P^2,P^3-monochloromethylenetetraphosphate], 260 nM. For the molecule `CNc1ncnc2c1ncn2[C@@H]1O[C@H](COP(O)(=S)OP(=O)(O)C(Cl)P(=O)(O)OP(O)(=S)OC[C@H]2O[C@@H](n3cnc4c(NC)ncnc43)[C@H](O)[C@@H]2O)[C@@H](O)[C@H]1O` (stereo partly shown) [Compound 8, P^1,P^4-bis(N^6-methyl-5′-adenosine)-P^1,P^4-dithio-P^2,P^3-monochloromethylenetetraphosphate], the IC50 worked out at 3520 ± 830 nM. Molecule `CCCNc1ncnc2c1ncn2C1OC(COP(O)(=S)OP(=O)(O)C(Cl)P(=O)(O)OP(O)(=S)OCC2OC(n3cnc4c(NCCC)ncnc43)C(O)C2O)C(O)C1O` (stereo not shown) [Compound 12, P^1,P^4-bis-(N^6-propyl-5′-adenosine)-P^1,P^4-dithio-P^2,P^3-monochloromethylenetetraphosphate] yielded an IC50 of 5560 ± 1700 nM. Take `CSc1nc(N)c2ncn(C3OC(COP(O)(=S)OP(=O)(O)C(Cl)P(=O)(O)OP(O)(=S)OCC4OC(n5cnc6c(N)nc(SC)nc65)C(O)C4O)C(O)C3O)c2n1` (stereo not shown) [Compound 17, P^1,P^4-bis-(2-methylthio-5′-adenosine)-P^1,P^4-dithio-P^2, P^3-monochloromethylenetetraphosphate]: the IC50 was found to be 13 ± 10 nM. `Nc1nc(I)nc2c1ncn2[C@@H]1O[C@H](COP(O)(=S)OP(=O)(O)C(Cl)P(=O)(O)OP(O)(=S)OC[C@H]2O[C@@H](n3cnc4c(N)nc(I)nc43)[C@H](O)[C@@H]2O)[C@@H](O)[C@H]1O` (stereo partly shown) [Compound 40, P^1,P^1-bis-(2-iodo-5′-adenosine)-P^1,P^4-dithio-P^2, P^3-monochloromethylenetetraphosphate] gave a half-inhibitory concentration (IC50) of 21 ± 6 nM. `Nc1nc(Cl)nc2c1ncn2C1OC(COP(O)(=S)OP(=O)(O)C(Cl)P(=O)(O)OP(O)(=S)OCC2OC(n3cnc4c(N)nc(Cl)nc43)C(O)C2O)C(O)C1O` (stereo not shown) [Compound 44, P^1,P^4-bis(2-chloro-5′-adenosine)-P^1,P^4-dithio-P^2,P^3-monochloromethylenetetraphosphate]: it took 98 ± 4 nM to reach half-maximal inhibition (IC50). Compared with the last molecule, the IC50 is about 4.7-fold higher. The result for `CCCSc1nc(N)c2ncn([C@@H]3O[C@H](COP(O)(=S)OP(=O)(O)C(Cl)P(=O)(O)OP(O)(=S)OC[C@H]4O[C@@H](n5cnc6c(N)nc(SCCC)nc65)[C@H](O)[C@@H]4O)[C@@H](O)[C@H]3O)c2n1` (stereo partly shown) [Compound 32, P^1,P^4-bis(2-propylthio-5′-adenosine)-P^1,P^4-dithio-P^2,P^3-monochloromethylenetetraphosphate] reads 15 ± 10 nM.
